Reference: patent US20240034753A1, “THERAPEUTIC PEPTIDES” (COHBAR, INC., priority 2020, published 2024)
Square brackets hold non-standard residues; d marks the D form. Peptide text beside a SMILES is read from it.

Legend:
[1] = system: A172 human brain glioblastoma cell line; experiment: Caspase-Glo 3/7 assay of caspase 3/7 activity in cultured cells; assay type: cell-based; conditions: peptide 10 μM, 18-20 hours, relative to 0.1% DMSO control
Description: The effect of the peptides on cell death/survival can be assessed using a […] assay in cultured cells. Peptides were dissolved at 10 mM in DMSO as stock solutions for use at a final concentration of 10 μM. […] Caspase-Glo 3/7 Assay Reagent was purchased from Promega (Madison, WI). A172 human brain glioblastoma cell line was purchased from American Type Culture Collection (Manassas, VA). A172 cells were grown in DMEM supplemented with 10% FBS with 100 IU/ml penicillin and 100 μg/ml streptomycin. Cultures were maintained at 37° C. in a humidified atmosphere of 5% CO2/95% air. A172 cells were seeded at 8,000 cells per well on 96-well plates. […] Caspase 3/7 activity was determined using a Caspase-Glo 3/7 Assay kit (Promega) according to the manufacturer's instructions. Luminescence for each sample well on the plate was measured using a Cytation 3 plate reader (BioTek, Winooski, VT). Activity was calculated relative to 0.1% DMSO control.

[2] = system: C2C12 Mouse Myoblasts; experiment: Glucose utilization (glucose remaining in medium); assay type: cell-based; conditions: peptide 10 μM, 18-22 hours, relative to 0.1% DMSO treated control cells
Description: The effect of the peptides on glucose metabolism can be assessed using an assay of glucose utilization in cultured cells such as mouse myoblasts. Peptides were initially prepared as 10 mM stock in DMSO and used at a final concentration of 10 μM (0.1% DMSO). C2C12 mouse myoblast cell line was purchased from American Type Culture Collection (Manassas, VA). C2C12 cultures were maintained at 37° C. in a humidified atmosphere of 5% CO2/95% air with medium changes every second day. C2C12 cells were grown in DMEM (1 g/L glucose) supplemented with 10% FBS with 100 IU/ml penicillin and 100 μg/ml streptomycin. C2C12 cells were seeded at 7,000 cells per well on 96-well plates and cultured to confluence. Once the cell reached confluence the media was changed to DMEM (1 g/L glucose) supplemented with 2% HS with 100 IU/ml penicillin and 100 μg/ml streptomycin and maintained at 37° C. in a humidified atmosphere of 5% CO2/95% air. 5 days post-induction of differentiation fresh DMEM (1 g/L glucose) supplemented with 2% HS with 100 IU/ml penicillin and 100 μg/ml streptomycin was added to cultures. Cells were maintained at 37° C. in a humidified atmosphere of 5% CO2 and 95% air for 5 hours. After 5 hours test peptides at 10 μM or controls (0.5 mM or 1 mM metformin in 1% DMSO) prepared in fresh differentiation medium were added to cells and the cultures were maintained at 37° C. in a humidified atmosphere of 5% CO2/95% air for 18-22 hours. At the end of the incubation culture media was removed from the cells and the remaining glucose concentration was measured using a Glucose Assay kit (Abcam) according to the manufacturer's instructions, using a Cytation 3 plate reader at 570 nm (BioTek, Winooski, VT). Glucose concentrations in the medium were calculated relative to 0.1% DMSO treated control cells. The relative standard deviation of the result for the 0.1% DMSO treated control was <20%. Metformin was used as a positive control for reduction of glucose levels (increased glucose utilization glucose levels for treatment with metformin (1 mM) treatment were <20% of the 0.1% DMSO treated control value. The results are reported in Table 11.

| SMILES | Caspase 3/7 Activity, Percent of Control Activity [1] | Glucose Utilization (glucose concentration in medium), Percent of Untreated Control [2] |
| --- | --- | --- |
| CSCC[C@H](NC(=O)CNC(=O)[C@@H](C)NC(=O)[C@H](CC(N)=O)NC(=O)[C@H](Cc1c[nH]cn1)NC(=O)[C@H](CC(C)C)NC(=O)[C@H](CCC(=O)O)NC(=O)[C@H](Cc1c[nH]c2ccccc12)NC(=O)[C@H](CCC(N)=O)NC(=O)[C@@H](N)CCCNC(=N)N)C(=O)N[C@@H](CO)C(=O)N[C@@H](C)C(=O)N[C@@H](Cc1ccccc1)C(=O)N[C@@H](CS)C(=O)O [compound 15] (H-RQWELHN[dA]GMSAFC-OH; N-terminus and C-terminus assumed) | 114.6% | 115.1% |
| CC[C@H](C)[C@H](NC(=O)[C@H](Cc1c[nH]c2ccccc12)NC(=O)[C@H](CCC(N)=O)NC(=O)[C@@H](N)CCCNC(=N)N)C(=O)N[C@@H](CC(C)C)C(=O)N[C@@H](Cc1c[nH]cn1)C(=O)N[C@@H](CC(N)=O)C(=O)N[C@H](C)C(=O)NCC(=O)N[C@@H](CCSC)C(=O)N[C@@H](CO)C(=O)N[C@@H](Cc1ccccc1)C(=O)N[C@@H](Cc1ccccc1)C(=O)N[C@@H](CS)C(=O)O [compound 14] (H-RQWILHN[dA]GMSFFC-OH; N-terminus and C-terminus assumed) | 107.4% | 115.7% |
